Results: PubChem BioAssay AID212 (DTP/NCI, 2004)
Several values for one entry are separate records, joined by “and”; a condition that tells them apart may be missing. Identical values can stand only once. Inconclusive results are not listed.

System: BDF1 mice, colon carcinoma 38 sc, T/C %
Assay: NCI In Vivo Anticancer Drug Screen. Data for tumor model Colon Carcinoma 38 (subcutaneous) in B6D2F1 (BDF1) mice
Conditions: endpoint: median tumor weight (est.), higher = larger tumour
How it was run: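 Transplantable tumor in mice; compound-treated vs vehicle-dosed controls. Measured survival or tumor size; value = T ÷ C.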

[1] = dose: 100.0 mg/kg/injection, schedule: Q07DX002 (ip), vehicle: saline with Tween-80
[2] = dose: 200.0 mg/kg/injection, schedule: Q07DX002 (ip), vehicle: saline with Tween-80
[3] = dose: 25.0 mg/kg/injection, schedule: Q07DX002 (ip), vehicle: saline with Tween-80
[4] = dose: 50.0 mg/kg/injection, schedule: Q07DX002 (ip), vehicle: saline with Tween-80
[5] = dose: 12.5 mg/kg/injection, schedule: Q07DX002 (ip), vehicle: saline with Tween-80
[6] = dose: 10.0 mg/kg/injection, schedule: Q07DX002 (ip), vehicle: saline with Tween-80
[7] = dose: 400.0 mg/kg/injection, schedule: Q07DX002 (ip), vehicle: saline with Tween-80

For `COc1ccc(-c2cc(=O)c3cccc(CC(=O)O)c3o2)cc1`, the T/C [1] was 84 % of control and the T/C [2] was 113 % of control.
In the case of `CCn1cnc2c(=S)nc[nH]c21`, the T/C [3] is reported as 87 % of control, the T/C [4] is reported as 64 % of control and the T/C [1] is reported as 57 % of control. For the same compound, the T/C [2] was 21 % of control.
`C=C1C(=O)OCC1(C(=O)OCC)C(=O)OCC` was tested, and the T/C [5] was 42 % of control and 62 % of control and 66 % of control and the T/C [4] was 88 % of control.
In the case of `CN(C)C(=O)c1cccc(COc2ccc(N3C(N)=NC(N)=NC3(C)C)cc2Cl)c1`, the T/C (dose: 32.0 mg/kg/injection, schedule: Q07DX003 (ip), vehicle: saline) is reported as 87 % of control and 98 % of control, the T/C (dose: 64.0 mg/kg/injection, schedule: Q07DX003 (ip), vehicle: saline) is reported as 50 % of control and the T/C (dose: 128.0 mg/kg/injection, schedule: Q07DX003 (ip), vehicle: saline) is reported as 66 % of control. The T/C (dose: 256.0 mg/kg/injection, schedule: Q07DX003 (ip), vehicle: saline) was 59 % of control.
In the case of `CCOC(=O)Nc1cc2c(c(N)n1)N=C(c1ccccc1)CN2`, the T/C (dose: 2.5 mg/kg/injection, schedule: Q07DX002 (ip), vehicle: saline with Tween-80) is reported as 66 % of control, the T/C (dose: 5.0 mg/kg/injection, schedule: Q07DX002 (ip), vehicle: saline with Tween-80) is reported as 73 % of control and the T/C [6] is reported as 97 % of control.
For `CC(=O)NC(CCc1ccc(Cl)c(Cl)c1)c1cccc(O)c(=O)c1` (stereo not drawn), the T/C (dose: 25.0 mg/kg/injection, schedule: Q07DX002 (ip), vehicle: Klucel (hydroxypropylcellulose) (HPC)) was 161 % of control, the T/C (dose: 100.0 mg/kg/injection, schedule: Q07DX002 (ip), vehicle: Klucel (hydroxypropylcellulose) (HPC)) was 109 % of control and the T/C (dose: 200.0 mg/kg/injection, schedule: Q07DX002 (ip), vehicle: Klucel (hydroxypropylcellulose) (HPC)) was 122 % of control.
With `CNNCc1ccc(C(=O)NC(C)C)cc1` the T/C (dose: 50.0 mg/kg/injection, schedule: Q07DX003 (ip), vehicle: saline) was 110 % of control, the T/C (dose: 100.0 mg/kg/injection, schedule: Q07DX003 (ip), vehicle: saline) was 123 % of control and the T/C (dose: 200.0 mg/kg/injection, schedule: Q07DX003 (ip), vehicle: saline) was 99 % of control. The T/C (dose: 400.0 mg/kg/injection, schedule: Q07DX003 (ip), vehicle: saline) was 35 % of control.
With `O=C[C@@H](CO)O[C@H](C=O)c1c[nH]c(=O)[nH]c1=O` the T/C (dose: 12.5 mg/kg/injection, schedule: Q07DX002 (ip), vehicle: saline) was 121 % of control, the T/C (dose: 50.0 mg/kg/injection, schedule: Q07DX002 (ip), vehicle: saline) was 83 % of control and the T/C (dose: 100.0 mg/kg/injection, schedule: Q07DX002 (ip), vehicle: saline) was 121 % of control. The T/C (dose: 200.0 mg/kg/injection, schedule: Q07DX002 (ip), vehicle: saline) was 57 % of control.
In the case of `COC1/C=C/O[C@@]2(C)Oc3c(C)c(O)c4c(O)c(cc(O)c4c3C2=O)NC(=O)/C(C)=C\C=C\[C@H](C)C(O)[C@@H](C)[C@@H](O)[C@@H](C)[C@H](OC(C)=O)[C@@H]1C` (stereo partly drawn), the T/C [5] is reported as 72 % of control, the T/C [4] is reported as 79 % of control and the T/C [1] is reported as 84 % of control. The T/C [2] was 77 % of control and the T/C [7] was 98 % of control.
In the case of `C/C=C/C=C/c1cc2cc3c(c(O)c2c(=O)[nH]1)C1(CC3)C(O)=c2c(=O)c3c(=O)cc(OC)c(=O)c=3c(=O)c2=C1O` (stereo not drawn), the T/C (dose: 0.06 mg/kg/injection, schedule: Q07DX002 (ip), vehicle: DMSO) is reported as 74 % of control and 97 % of control, the T/C (dose: 0.12 mg/kg/injection, schedule: Q07DX002 (ip), vehicle: DMSO) is reported as 115 % of control and 91 % of control and the T/C (dose: 0.15 mg/kg/injection, schedule: Q07DX002 (ip), vehicle: DMSO) is reported as 81 % of control. For the same compound, the T/C (dose: 0.25 mg/kg/injection, schedule: Q07DX002 (ip), vehicle: DMSO) was 57 % of control, the T/C (dose: 0.3 mg/kg/injection, schedule: Q07DX002 (ip), vehicle: DMSO) was 85 % of control and the T/C (dose: 0.5 mg/kg/injection, schedule: Q07DX002 (ip), vehicle: DMSO) was 79 % of control and 93 % of control. The T/C (dose: 0.61 mg/kg/injection, schedule: Q07DX002 (ip), vehicle: DMSO) was 87 % of control, the T/C (dose: 1.0 mg/kg/injection, schedule: Q07DX002 (ip), vehicle: DMSO) was 114 % of control and 102 % of control and the T/C (dose: 1.22 mg/kg/injection, schedule: Q07DX002 (ip), vehicle: DMSO) was 81 % of control. For the same compound, the T/C (dose: 2.0 mg/kg/injection, schedule: Q07DX002 (ip), vehicle: DMSO) was 121 % of control.
`COc1cc(NCc2ccc3nc(N)nc(N)c3c2C)cc(OC)c1OC` (tested in a mixture with another compound) was tested, and the T/C (dose: 105.0 mg/kg/injection, schedule: Q07DX002 (ip), vehicle: water) was 86 % of control, the T/C (dose: 157.0 mg/kg/injection, schedule: Q07DX002 (ip), vehicle: water) was 100 % of control and the T/C (dose: 236.0 mg/kg/injection, schedule: Q07DX002 (ip), vehicle: water) was 75 % of control.
With `COc1cc2cc(c1Cl)N(C)C(=O)C[C@H](OC(=O)[C@H](C)N(C)C(C)=O)[C@]1(C)O[C@H]1[C@H](C)[C@@H]1C[C@@](O)(NC(=O)O1)[C@H](OC)C=C/C=C(\C)C2` the T/C (dose: 0.01 mg/kg/injection, schedule: Q07DX003 (ip), vehicle: Klucel (hydroxypropylcellulose) (HPC)) was 99 % of control, the T/C (dose: 0.03 mg/kg/injection, schedule: Q07DX003 (ip), vehicle: Klucel (hydroxypropylcellulose) (HPC)) was 114 % of control and the T/C (dose: 0.06 mg/kg/injection, schedule: Q07DX003 (ip), vehicle: Klucel (hydroxypropylcellulose) (HPC)) was 84 % of control. For the same compound, the T/C (dose: 0.12 mg/kg/injection, schedule: Q07DX003 (ip), vehicle: Klucel (hydroxypropylcellulose) (HPC)) was 73 % of control, the T/C (dose: 0.25 mg/kg/injection, schedule: Q07DX003 (ip), vehicle: Klucel (hydroxypropylcellulose) (HPC)) was 164 % of control and the T/C (dose: 0.5 mg/kg/injection, schedule: Q07DX003 (ip), vehicle: Klucel (hydroxypropylcellulose) (HPC)) was 67 % of control. For the same compound, the T/C (dose: 30.0 micrograms/kg/injection, schedule: Q07DX003 (ip), vehicle: Klucel (hydroxypropylcellulose) (HPC)) was 116 % of control, the T/C (dose: 125.0 micrograms/kg/injection, schedule: Q07DX003 (ip), vehicle: Klucel (hydroxypropylcellulose) (HPC)) was 120 % of control and the T/C (dose: 250.0 micrograms/kg/injection, schedule: Q07DX003 (ip), vehicle: Klucel (hydroxypropylcellulose) (HPC)) was 90 % of control. The T/C (dose: 500.0 micrograms/kg/injection, schedule: Q07DX003 (ip), vehicle: Klucel (hydroxypropylcellulose) (HPC)) was 75 % of control and the T/C (dose: 1000.0 micrograms/kg/injection, schedule: Q07DX003 (ip), vehicle: Klucel (hydroxypropylcellulose) (HPC)) was 57 % of control.
For `C[n+]1cccc(NC(=O)c2ccc(NC(=O)C34CCC(C(=O)Nc5ccc(C(=O)Nc6ccc[n+](C)c6)cc5)(CC3)CC4)cc2)c1`, the T/C [6] was 60 % of control, the T/C (dose: 20.0 mg/kg/injection, schedule: Q07DX002 (ip), vehicle: saline with Tween-80) was 57 % of control and the T/C (dose: 22.5 mg/kg/injection, schedule: Q07DX002 (ip), vehicle: saline with Tween-80) was 93 % of control. For the same compound, the T/C (dose: 40.0 mg/kg/injection, schedule: Q07DX002 (ip), vehicle: saline with Tween-80) was 28 % of control, the T/C (dose: 45.0 mg/kg/injection, schedule: Q07DX002 (ip), vehicle: saline with Tween-80) was 71 % of control and the T/C (dose: 80.0 mg/kg/injection, schedule: Q07DX002 (ip), vehicle: saline with Tween-80) was 20 % of control. For the same compound, the T/C (dose: 90.0 mg/kg/injection, schedule: Q07DX002 (ip), vehicle: saline with Tween-80) was 109 % of control.
With `C=CC(C)(C)n1cc(C2=C(O)C(=O)C(c3cn(C(C)(C)C=C)c4ccccc34)=C(O)C2=O)c2ccccc21` the T/C (dose: 5.0 mg/kg/injection, schedule: Q07DX002 (ip), vehicle: Klucel (hydroxypropylcellulose) (HPC)) was 67 % of control and 79 % of control, the T/C (dose: 10.0 mg/kg/injection, schedule: Q07DX002 (ip), vehicle: Klucel (hydroxypropylcellulose) (HPC)) was 66 % of control and 82 % of control and the T/C (dose: 20.0 mg/kg/injection, schedule: Q07DX002 (ip), vehicle: DMSO) was 87 % of control. The T/C (dose: 40.0 mg/kg/injection, schedule: Q07DX002 (ip), vehicle: DMSO) was 101 % of control, the T/C (dose: 80.0 mg/kg/injection, schedule: Q07DX002 (ip), vehicle: DMSO) was 41 % of control and the T/C (dose: 80.0 mg/kg/injection, schedule: Q07DX002 (ip), vehicle: Klucel (hydroxypropylcellulose) (HPC)) was 79 % of control and 81 % of control. For the same compound, the T/C (dose: 160.0 mg/kg/injection, schedule: Q07DX002 (ip), vehicle: Klucel (hydroxypropylcellulose) (HPC)) was 57 % of control and 70 % of control.
`C/C=C/C=C1/OC(C)=C(C(C)=O)C1=O` was tested, and the T/C [3] was 59 % of control and 84 % of control, the T/C [2] was 54 % of control and 57 % of control and 69 % of control and the T/C [7] was 37 % of control and 62 % of control. For the same compound, the T/C (dose: 800.0 mg/kg/injection, schedule: Q07DX002 (ip), vehicle: saline with Tween-80) was 100 % of control.
